Assay results taken from paper PMC7764601 (Molecules, 2020).
Where two headings read alike, the source gives them in different places.

Experiments:
[1] = molecular target: T1, µ receptor of the rat cerebral cortex (Rattus norvegicus, UniProt P33535); test: Displacement of [3H-DHM] from µ receptor binding sites of rat cerebral cortex; conditions: read-out: Dihydromorphine [3H-DHM] Ki
T1 construct: from tissue; host or cells: rat cerebral cortex

[2] = system: mice; parameters: method as in PMID 11234340, PMID 12484538, PMID 15652370; conditions: cited from earlier work; for % Inh. of locomotor activity: series 1; for ED50, influence on the locomotor activity: imides described previously (series 1)
[3] = system: mice; parameters: method as in PMID 11234340, PMID 12484538, PMID 15652370; conditions: series 1, cited from earlier work
[4] = system: mice; conditions: cited from earlier work
[5] = compounds obtained previously (series 1 and 2)

T1 sequence (P33535 whole entry): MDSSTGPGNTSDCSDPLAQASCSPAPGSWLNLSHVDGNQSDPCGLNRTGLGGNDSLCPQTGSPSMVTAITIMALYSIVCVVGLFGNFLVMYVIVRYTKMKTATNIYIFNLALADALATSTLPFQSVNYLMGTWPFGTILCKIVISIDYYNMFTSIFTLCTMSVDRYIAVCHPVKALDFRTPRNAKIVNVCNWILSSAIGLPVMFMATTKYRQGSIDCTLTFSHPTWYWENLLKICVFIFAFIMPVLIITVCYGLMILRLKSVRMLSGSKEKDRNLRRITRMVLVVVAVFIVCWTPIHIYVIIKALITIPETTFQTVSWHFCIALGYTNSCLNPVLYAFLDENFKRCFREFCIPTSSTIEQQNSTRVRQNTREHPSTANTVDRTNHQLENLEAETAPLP

Compound	Ki [1] [µM]	% Inh. of locomotor activity ([2]; dose 12.5 mg/kg) [%]	% Inh. of locomotor activity ([2]; dose 25 mg/kg) [%]	% Inh. of locomotor activity ([2]; dose 50 mg/kg) [%]	ED50, influence on the locomotor activity [2] [mg/kg]	Thiopental Anesthesia % Prolong. ([3]; dose 12.5 mg/kg) [%]	Thiopental Anesthesia % Prolong. ([3]; dose 25 mg/kg) [%]	Thiopental Anesthesia % Prolong. ([3]; dose 50 mg/kg) [%]	ED50, writhing test [4, 5] [mg/kg]	ED50, writhing test ([4]; imides described previously) [mg/kg]
COc1ccccc1N1CCN(CCCN2C(=O)c3cc(C)nc(OC)c3C2=O)CC1 [Compound 1I]	30.8 ± 47.8	53.91	72.77	76.69	11.8	123.3	140.3	207.2	0.67	
COc1nc(C)cc2c1C(=O)N(CCCN1CCN(c3cccc(Cl)c3)CC1)C2=O [Compound 1J]	> 100									8.8
COc1nc(C)cc2c1C(=O)N(CN1CCc3ccccc3C1)C2=O [Compound 1M]	13.8 ± 12.2		47.25	59.21	29.5		146.6	195.1	12.7	
CCOc1nc(C)cc2c1C(=O)N(CCCN1CCN(c3cccc(Cl)c3)CC1)C2=O [Compound 2J]	> 100									8.7
